Data taken from the supplement of paper PMC10307832.

Legend:
Assay in all cases: relative viability (nuclei count vs DMSO), 5 days (fraction); higher = more cells survive
[1] = test system: A-427
Summary of the method: (§1)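 Values are medians from duplicate plates. Each reflects relative viability, defined as the nuclei count of treated wells over that of vehicle wells. Lung cancer cell lines in 1536-well plates were pin-tool dosed one day after seeding with one drug alone or with a fixed anchor-drug dose plus five library-drug doses (not always all listed) in √10 steps, then fixed, stained and imaged at 4× after 5 days.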

[2] = test system: BEN
Summary of the method: as §1

[3] = test system: COR-L23
Summary of the method: as §1

[4] = test system: EKVX
Summary of the method: as §1

[5] = test system: EMC-BAC-2
Summary of the method: as §1

[6] = test system: EPLC-272H
Summary of the method: as §1

[7] = test system: HCC-44
Summary of the method: as §1

[8] = test system: LXF-289
Summary of the method: as §1

[9] = test system: NCI-H1650
Summary of the method: as §1

[10] = test system: NCI-H1651
Summary of the method: as §1

[11] = test system: NCI-H1915
Summary of the method: as §1

[12] = test system: NCI-H2087
Summary of the method: as §1

[13] = test system: NCI-H2228
Summary of the method: as §1

[14] = test system: NCI-H2347
Summary of the method: as §1

[15] = test system: NCI-H460
Summary of the method: as §1

[16] = test system: NCI-H520
Summary of the method: as §1

[17] = test system: NCI-H661
Summary of the method: as §1

[18] = test system: SW 1573
Summary of the method: as §1

[19] = test system: LK-2
Summary of the method: as §1

[20] = test system: NCI-H1793
Summary of the method: as §1

Compound: COCC1(CO)C(=O)C2CCN1CC2 (stereo not drawn) [PRIMA-1MET] + CC(C)C[C@H](NC(=O)[C@H](Cc1ccccc1)NC(=O)c1cnccn1)B(O)O [Bortezomib] (partner 0.002 µM)
- relative viability ([1]; first compound 0.2 µM): 1.09
- relative viability ([1]; first compound 0.6325 µM): 0.881
- relative viability ([1]; first compound 2 µM): 0.901
- relative viability ([1]; first compound 6.325 µM): 0.839
- relative viability ([1]; first compound 20 µM): 0.962
- relative viability ([2]; first compound 0.2 µM): 0.853
- relative viability ([2]; first compound 0.6325 µM): 0.75
- relative viability ([2]; first compound 6.325 µM): 0.888
- relative viability ([2]; first compound 20 µM): 0.864
- relative viability ([3]; first compound 0.2 µM): 1.29
- relative viability ([3]; first compound 0.6325 µM): 0.97
- relative viability ([3]; first compound 2 µM): 0.954
- relative viability ([3]; first compound 6.325 µM): 1.05
- relative viability ([3]; first compound 20 µM): 0.0202
- relative viability ([4]; first compound 0.2 µM): 1.16
- relative viability ([4]; first compound 0.6325 µM): 0.851
- relative viability ([4]; first compound 2 µM): 0.943
- relative viability ([4]; first compound 6.325 µM): 1.06
- relative viability ([4]; first compound 20 µM): 0.845
- relative viability ([5]; first compound 0.2 µM): 1.15
- relative viability ([5]; first compound 0.6325 µM): 1.02
- relative viability ([5]; first compound 2 µM): 0.952
- relative viability ([5]; first compound 6.325 µM): 1.03
- relative viability ([5]; first compound 20 µM): 1.08
- relative viability ([6]; first compound 0.2 µM): 1.03
- relative viability ([6]; first compound 0.6325 µM): 0.847
- relative viability ([6]; first compound 2 µM): 0.966
- relative viability ([6]; first compound 6.325 µM): 1.2
- relative viability ([6]; first compound 20 µM): 0.686
- relative viability ([7]; first compound 0.2 µM): 0.971
- relative viability ([7]; first compound 0.6325 µM): 0.76
- relative viability ([7]; first compound 2 µM): 0.927
- relative viability ([7]; first compound 6.325 µM): 0.911
- relative viability ([7]; first compound 20 µM): 0.877
- relative viability ([8]; first compound 0.2 µM): 0.999
- relative viability ([8]; first compound 0.6325 µM): 0.976
- relative viability ([8]; first compound 2 µM): 1.12
- relative viability ([8]; first compound 6.325 µM): 1
- relative viability ([8]; first compound 20 µM): 0.872
- relative viability ([9]; first compound 0.2 µM): 0.207
- relative viability ([9]; first compound 0.6325 µM): 0.222
- relative viability ([9]; first compound 2 µM): 0.205
- relative viability ([9]; first compound 6.325 µM): 0.188
- relative viability ([9]; first compound 20 µM): 0.197
- relative viability ([10]; first compound 0.2 µM): 0.929
- relative viability ([10]; first compound 0.6325 µM): 0.847
- relative viability ([10]; first compound 2 µM): 0.874
- relative viability ([10]; first compound 6.325 µM): 0.975
- relative viability ([10]; first compound 20 µM): 0.844
- relative viability ([11]; first compound 0.2 µM): 1.07
- relative viability ([11]; first compound 0.6325 µM): 0.695
- relative viability ([11]; first compound 2 µM): 0.918
- relative viability ([11]; first compound 6.325 µM): 0.764
- relative viability ([11]; first compound 20 µM): 0.956
- relative viability ([12]; first compound 0.2 µM): 1
- relative viability ([12]; first compound 0.6325 µM): 0.673
- relative viability ([12]; first compound 2 µM): 0.795
- relative viability ([12]; first compound 6.325 µM): 0.888
- relative viability ([12]; first compound 20 µM): 0.647
- relative viability ([13]; first compound 0.2 µM): 1.1
- relative viability ([13]; first compound 0.6325 µM): 0.957
- relative viability ([13]; first compound 2 µM): 1.09
- relative viability ([13]; first compound 6.325 µM): 1.04
- relative viability ([13]; first compound 20 µM): 0.0398
- relative viability ([14]; first compound 0.2 µM): 1.33
- relative viability ([14]; first compound 0.6325 µM): 1.11
- relative viability ([14]; first compound 6.325 µM): 1.07
- relative viability ([14]; first compound 20 µM): 0.847
- relative viability ([15]; first compound 0.2 µM): 1.38
- relative viability ([15]; first compound 0.6325 µM): 0.967
- relative viability ([15]; first compound 2 µM): 1.05
- relative viability ([15]; first compound 6.325 µM): 0.581
- relative viability ([15]; first compound 20 µM): 0.0059
- relative viability ([16]; first compound 0.2 µM): 0.545
- relative viability ([16]; first compound 0.6325 µM): 0.503
- relative viability ([16]; first compound 6.325 µM): 0.613
- relative viability ([16]; first compound 20 µM): 0.113
- relative viability ([17]; first compound 0.2 µM): 0.846
- relative viability ([17]; first compound 0.6325 µM): 0.69
- relative viability ([17]; first compound 6.325 µM): 0.817
- relative viability ([17]; first compound 20 µM): 0.623
- relative viability ([18]; first compound 0.2 µM): 1.13
- relative viability ([18]; first compound 0.6325 µM): 0.802
- relative viability ([18]; first compound 2 µM): 1.03
- relative viability ([18]; first compound 6.325 µM): 0.421
- relative viability ([18]; first compound 20 µM): 0.0222

Compound: COCC1(CO)C(=O)C2CCN1CC2 (stereo not drawn) [PRIMA-1MET] + CC1(C)CCC(c2ccc(Cl)cc2)=C(CN2CCN(c3ccc(C(=O)NS(=O)(=O)c4ccc(N[C@H](CCN5CCOCC5)CSc5ccccc5)c(S(=O)(=O)C(F)(F)F)c4)cc3)CC2)C1 [Navitoclax] (partner 0.5 µM)
- relative viability ([1]; first compound 0.2 µM): 0.884
- relative viability ([1]; first compound 0.6325 µM): 0.821
- relative viability ([1]; first compound 2 µM): 0.961
- relative viability ([1]; first compound 6.325 µM): 0.968
- relative viability ([1]; first compound 20 µM): 1
- relative viability ([2]; first compound 0.2 µM): 0.0631
- relative viability ([2]; first compound 0.6325 µM): 0.0967
- relative viability ([2]; first compound 6.325 µM): 0.0571
- relative viability ([2]; first compound 20 µM): 0.0562
- relative viability ([3]; first compound 0.2 µM): 1.1
- relative viability ([3]; first compound 0.6325 µM): 0.93
- relative viability ([3]; first compound 2 µM): 1.06
- relative viability ([3]; first compound 6.325 µM): 1.03
- relative viability ([3]; first compound 20 µM): 0.023
- relative viability ([4]; first compound 0.2 µM): 1.03
- relative viability ([4]; first compound 0.6325 µM): 0.621
- relative viability ([4]; first compound 2 µM): 0.71
- relative viability ([4]; first compound 6.325 µM): 0.938
- relative viability ([4]; first compound 20 µM): 0.777
- relative viability ([5]; first compound 0.2 µM): 1.18
- relative viability ([5]; first compound 0.6325 µM): 1.16
- relative viability ([5]; first compound 2 µM): 1.13
- relative viability ([5]; first compound 6.325 µM): 1.25
- relative viability ([5]; first compound 20 µM): 1.15
- relative viability ([6]; first compound 0.2 µM): 1.33
- relative viability ([6]; first compound 0.6325 µM): 0.933
- relative viability ([6]; first compound 2 µM): 1.15
- relative viability ([6]; first compound 6.325 µM): 1.15
- relative viability ([6]; first compound 20 µM): 0.989
- relative viability ([7]; first compound 0.2 µM): 1.05
- relative viability ([7]; first compound 0.6325 µM): 0.689
- relative viability ([7]; first compound 2 µM): 0.916
- relative viability ([7]; first compound 6.325 µM): 1.03
- relative viability ([7]; first compound 20 µM): 0.931
- relative viability ([19]; first compound 0.2 µM): 1.06
- relative viability ([19]; first compound 0.6325 µM): 0.771
- relative viability ([19]; first compound 2 µM): 0.617
- relative viability ([19]; first compound 6.325 µM): 0.726
- relative viability ([19]; first compound 20 µM): 0.133
- relative viability ([8]; first compound 0.2 µM): 0.966
- relative viability ([8]; first compound 0.6325 µM): 0.956
- relative viability ([8]; first compound 2 µM): 0.93
- relative viability ([8]; first compound 6.325 µM): 0.986
- relative viability ([8]; first compound 20 µM): 0.903
- relative viability ([9]; first compound 0.2 µM): 1.39
- relative viability ([9]; first compound 0.6325 µM): 1.14
- relative viability ([9]; first compound 2 µM): 1.32
- relative viability ([9]; first compound 6.325 µM): 1.33
- relative viability ([9]; first compound 20 µM): 0.888
- relative viability ([10]; first compound 0.2 µM): 1.15
- relative viability ([10]; first compound 0.6325 µM): 1
- relative viability ([10]; first compound 2 µM): 0.918
- relative viability ([10]; first compound 6.325 µM): 1.19
- relative viability ([10]; first compound 20 µM): 0.974
- relative viability ([20]; first compound 0.2 µM): 0.576
- relative viability ([20]; first compound 0.6325 µM): 0.446
- relative viability ([20]; first compound 6.325 µM): 0.609
- relative viability ([20]; first compound 20 µM): 0.49
- relative viability ([11]; first compound 0.2 µM): 0.766
- relative viability ([11]; first compound 0.6325 µM): 0.586
- relative viability ([11]; first compound 2 µM): 0.642
- relative viability ([11]; first compound 6.325 µM): 0.773
- relative viability ([11]; first compound 20 µM): 0.778
- relative viability ([12]; first compound 0.2 µM): 1.03
- relative viability ([12]; first compound 0.6325 µM): 0.901
- relative viability ([12]; first compound 2 µM): 1.22
- relative viability ([12]; first compound 6.325 µM): 1.2
- relative viability ([12]; first compound 20 µM): 0.842
- relative viability ([13]; first compound 0.2 µM): 0.9
- relative viability ([13]; first compound 0.6325 µM): 0.839
- relative viability ([13]; first compound 2 µM): 1.09
- relative viability ([13]; first compound 6.325 µM): 0.62
- relative viability ([13]; first compound 20 µM): 0.0661
- relative viability ([14]; first compound 0.2 µM): 0.887
- relative viability ([14]; first compound 0.6325 µM): 0.708
- relative viability ([14]; first compound 2 µM): 0.519
- relative viability ([14]; first compound 6.325 µM): 0.872
- relative viability ([14]; first compound 20 µM): 0.754
- relative viability ([15]; first compound 0.2 µM): 1.44
- relative viability ([15]; first compound 0.6325 µM): 0.971
- relative viability ([15]; first compound 2 µM): 1.06
- relative viability ([15]; first compound 6.325 µM): 0.528
- relative viability ([15]; first compound 20 µM): 0.0099
- relative viability ([16]; first compound 0.2 µM): 1.25
- relative viability ([16]; first compound 0.6325 µM): 1.06
- relative viability ([16]; first compound 6.325 µM): 1.17
- relative viability ([16]; first compound 20 µM): 0.131
- relative viability ([18]; first compound 0.2 µM): 1.12
- relative viability ([18]; first compound 0.6325 µM): 0.614
- relative viability ([18]; first compound 2 µM): 0.789
- relative viability ([18]; first compound 6.325 µM): 0.0618
- relative viability ([18]; first compound 20 µM): 0.034
